Assay results reported in US8778966B2, “Quinolinone derivatives as PARP and tank inhibitors” (Janssen Pharmaceutica, NV, priority 2007, dated 2014).

The molecules below were run on HCT116 cells (assay: Mitotic arrest assay on HCT116 cells (phospho-histone H3 Ser10)). Conditions: Homo sapiens, HCT-116, HCT116 cells; lowest active dose; read-out: Mitotic arrest HCT116 LAD (converted).
Format: cell-based, human
Text: Phosphorylation of histone H3 is tightly correlated with chromosome condensation during both mitosis and meiosis. The assay is a cellular immunosorbent assay wherein the sole antibody is labelled with a detectable conjugate. The phospho-histone H3 (ser10) antibody detects endogenous levels of histone H3 only when phosphorylated at serine 10. […] In parallel with antibody detection, the nuclei of the cells are stained with Hoechst 33342 for cell-counting. Cells are detected and analysed using the InCell Analyzer 1000 from GE Healthcare. Since both the antibody-detection as well as the Hoechst-staining are in the nucleus, the dual area object intensity algorithm is used for analysing the wells.
All compounds tested were dissolved in DMSO and further dilutions were made in culture medium. Final DMSO concentrations never exceeded 0.1% (v/v).
HCT116 cells (supplier: ATCC) (human colon carcinoma cell line) were cultivated in Mc Coy's 5 A medium (supplier: Gibco) supplemented with 10% foetal calf serum (FCS), 2 mM L-glutamine and gentamycin at 37° C. in a humidified incubator with 5% CO2.
HCT116 cells were seeded at 20.000 cells per well in a 96 well plate (black/clear bottom, poly-D-lysine coated, supplier Greiner), cultured overnight to adhere to the bottom of the plate and treated with compound for 6 hours at 37° C. in a humidified incubator. After incubation, the medium was removed and cells were fixed using 100 μl/well formaldehyde (Accustain®, Formaline solution 10% neutral buffered, contains 4% formaldehyde w/v, supplier: Sigma) was added. After incubation for 15 minutes at room temperature, the formaldehyde was removed and cells were incubated with methanol (−20° C.) for 15 minutes at room temperature. After incubation, cells were washed once with phosphate-buffered saline (PBS —CaCl2, —MgCl2, suppier: Gibco)/0.05% Tween 20. The anti-phospho-histone H3 (Ser10) Alexa Fluor 488 antibody (supplier: Cell signalling) is used for detection of the cells inmitosis. The antibody was diluted 1/50 in 5% bovine serum albumins (BSA) and 50 μl/well was used for incubation overnight at room temperature in the dark.
A 1/2000 dilution of Hoechtst 33342 (10 mg/ml, supplier: Invitrogen) was made and 100 μl/well was added for at least 30 minutes before acquiring images. The absorbance at dual wavelengths of 360/480 nm was measured using the InCell Analyzer 1000 from GE Healthcare and the results were then analyzed.
For each experiment, controls (containing no drug) and a blank incubation (containing no cells or drugs) were run in parallel. Analysis was done in triplicate. Low cell count wells were invalidated. The blank value was subtracted from all control and sample values and divided by the standard deviation of the measurements. The compounds were considered active when the obtained value (sigma) was >5. Herein the effects of test compounds are expressed as the lowest dose giving a sigma value of >5 (LAD) (see table F-2).

Row | SMILES | minimal effective concentration [µM]
1 | CCc1cc2ccc(C(C)(C#N)Cc3cccc(-c4cnn(C)c4)c3)cc2[nH]c1=O (centres unmarked) [Compound 17] | 1
2 | CCc1cc2ccc(C(C)(C#N)Cc3cccc(-c4ccccc4)c3)cc2[nH]c1=O (centres unmarked) [Compound 18] | 0.316
3 | CCc1cc2ccc(C(C)(C#N)Cc3cccc(I)c3)cc2[nH]c1=O (centres unmarked) [Compound 19] | 0.1
4 | CCc1cc2ccc(C(C)(C#N)Cc3cccc(N(C)C)c3)cc2[nH]c1=O (centres unmarked) [Compound 20] | 0.1
5 | CCc1cc2ccc(C(C)(C#N)Cc3cccc(N4CCOCC4)c3)cc2[nH]c1=O (centres unmarked) [Compound 21] | 0.316
6 | CCc1cc2ccc(C(C)(C#N)Cc3cccc(O)c3)cc2[nH]c1=O (centres unmarked) [Compound 22] | 3.16
7 | CCc1cc2ccc(C(C)(C#N)Cc3cccc(OCc4ccccc4)c3)cc2[nH]c1=O (centres unmarked) [Compound 23] | 1
8 | CCc1cc2ccc(C(C)(C#N)Cc3cccc(OCCOC)c3)cc2[nH]c1=O (centres unmarked) [Compound 24] | 1

These molecules were tested on tubulin (assay: Tubulin polymerization assay). Conditions: tested at 20 μM and 5 μM.
Format: biochemical
Set-up: key: a compound showing 0 to 50% inhibition at 20 μM is reported as score 1; Score 2 compounds are defined as compound showing more than 50% inhibition at 20 μM and less than 50% inhibition at 5 μM; a compound showing more than 50% inhibition at 5 μM is reported as score 3
Method: The tubulin polymerization assay is an adaptation of an assay originally described by Bonne, D. et al. (J. Biol. Chem., 1985, 260:2819-25). The assay kit was purchased from Cytoskeleton, Inc. (catalogue number BK011) and the assay was performed as described by the supplier with the following modifications. The assay was run in a 384-well black Proxiplate (Perkin Elmer) and volumes were adapted accordingly. The reactions were carried out in a final volume of 10 μl. Compounds were added to 25 μl of the reaction mix in 96-well PP plates (Corning) on ice and 10 μl of this mixture was dispensed into duplicates of the 384-well Proxiplates pre-warmed to 37° C. in a Fluoroskan Ascent plate reader (Thermo Scientific). Fluorescence measurements were taken every minute for one hour. The maximum slope of each well was determined (linear regression through 4 consecutive points) and polymerization was calculated as a percentage of polymerization observed in the absence of compound. Compounds were first measured at a concentration of 20 μM and then at 5 μM for those showing more than 50% inhibition at 20 μM as compared to the polymerization observed in the absence of compound. Results are reported in Table F-2 as scores defined as: a compound showing 0 to 50% inhibition at 20 μM is reported as score 1; a compound showing more than 50% inhibition at 5 μM is reported as score 3.

Row | SMILES | tubulin polymerisation score
9 | CCc1cc2ccc([C@@](C)(C#N)CN(C)Cc3ccc(C#N)cc3)cc2[nH]c1=O (single isomer, unassigned) [Compound 253] | 2
10 | CCc1cc2ccc([C@](C)(C#N)[C@H]3CCOc4ccccc43)cc2[nH]c1=O (single isomer, unassigned) [Compound 394] | 1 (a compound showing 0 to 50% inhibition at 20 μM is reported as score 1)
11 | CCc1cc2ccc([C@@](C)(C#N)[C@H]3CCOc4ccccc43)cc2[nH]c1=O (single isomer, unassigned) [Compound 395] | 2
12 | CCc1cc2ccc(C(C)(C#N)Cc3cccc(I)c3)cc2[nH]c1=O (centres unmarked) [Compound 19] | 2
13 | CCC(=O)c1cccc(CC(C)(C#N)c2ccc3cc(C)c(=O)[nH]c3c2)c1 (centres unmarked) [Compound 173] | 3 (a compound showing more than 50% inhibition at 5 μM is reported as score 3)
14 | COc1cc2ccc(C(C)(C#N)Cc3cccc(C#N)n3)cc2[nH]c1=O (centres unmarked) [Compound 218] | 2
15 | CCc1cc2ccc(C(C)(C#N)Cc3ccc(Cl)nc3OC)cc2[nH]c1=O (centres unmarked) [Compound 225] | 2
16 | CCc1cc2ccc(C(C)(C#N)Cc3cccc(N4CCCC4)n3)cc2[nH]c1=O (centres unmarked) [Compound 226] | 2
17 | CCc1cc2ccc(C(C)(C#N)Cc3cc(OC)cc(OC)n3)cc2[nH]c1=O (centres unmarked) [Compound 232] | 2
18 | CCc1cc2ccc(C(C)(C#N)Cc3cc(C#N)cc4c3OCC4)cc2[nH]c1=O (centres unmarked) [Compound 236] | 2
19 | Cc1cc2ccc(C(C)(C#N)C3CCc4ccc(Br)cc43)cc2[nH]c1=O (centres unmarked) [Compound 249] | 2
20 | CCc1cc2ccc(C(C#N)(CC)Cc3cccc(C#N)c3)cc2[nH]c1=O (centres unmarked) [Compound 265] | 2
21 | CCc1cc2ccc(C(C)(C#N)Cc3cc(F)cc(C#N)c3)cc2[nH]c1=O (centres unmarked) [Compound 266] | 3 (a compound showing more than 50% inhibition at 5 μM is reported as score 3)
22 | CCc1cc2ccc(C(C#N)(CC)Cc3cccc(OC)c3)cc2[nH]c1=O (centres unmarked) [Compound 287] | 2
23 | CCOc1cc(C#N)nc(CC(C)(C#N)c2ccc3cc(CC)c(=O)[nH]c3c2)n1 (centres unmarked) [Compound 315] | 2
24 | CCc1cc2ccc(C(C#N)(CC)Cc3nc(C#N)cc(OC)n3)cc2[nH]c1=O (centres unmarked) [Compound 316] | 2
25 | CCc1cc2ccc(C(C#N)(CC)Cc3nc(OC)cc(OC)n3)cc2[nH]c1=O (centres unmarked) [Compound 321] | 2
26 | CCc1cc2ccc(C(C)(C#N)Cc3ccnc(C#N)c3)cc2[nH]c1=O (centres unmarked) [Compound 324] | 1 (a compound showing 0 to 50% inhibition at 20 μM is reported as score 1)
27 | CCc1cc2ccc(C(C)(C#N)Cc3cc(C)nc(C#N)c3)cc2[nH]c1=O (centres unmarked) [Compound 328] | 2
28 | CCc1cc2ccc(C(C)(C#N)Cc3cccc(F)n3)cc2[nH]c1=O (centres unmarked) [Compound 331] | 2
29 | CCc1cc2ccc([C@](C)(C#N)Cc3cc(F)cc(F)c3)cc2[nH]c1=O [Compound 333] | 1 (a compound showing 0 to 50% inhibition at 20 μM is reported as score 1)
30 | CCc1cc2ccc(C(C)(C#N)Cc3ccc(C(F)(F)F)nc3C)cc2[nH]c1=O (centres unmarked) [Compound 340] | 1 (a compound showing 0 to 50% inhibition at 20 μM is reported as score 1)
31 | CCc1cc2ccc(C(C#N)(CC)Cc3cccc(C#N)n3)cc2[nH]c1=O (centres unmarked) [Compound 342] | 3 (a compound showing more than 50% inhibition at 5 μM is reported as score 3)
32 | CCc1cc2ccc(C(C)(C#N)CCOc3ncc(Br)cn3)cc2[nH]c1=O (centres unmarked) [Compound 349] | 2
33 | CCc1cc2ccc(C(C)(C#N)Cc3nc(C)cc(OC)n3)cc2[nH]c1=O (centres unmarked) [Compound 371] | 1 (a compound showing 0 to 50% inhibition at 20 μM is reported as score 1)
34 | CCc1cc2ccc(C(C)(C#N)CN3CCN(c4ncc(Br)cn4)CC3)cc2[nH]c1=O (centres unmarked) [Compound 374] | 2
35 | CCc1cc2ccc(C(C)(C#N)CN3CCc4ccccc4C3)cc2[nH]c1=O (centres unmarked) [Compound 376] | 1 (a compound showing 0 to 50% inhibition at 20 μM is reported as score 1)
36 | CCc1cc2ccc([C@](C)(C#N)C[C@H]3Cc4ccccc4O3)cc2[nH]c1=O [Compound 397] | 1 (a compound showing 0 to 50% inhibition at 20 μM is reported as score 1)
37 | CCc1cc2ccc(C(C)(C#N)CC3Oc4ccccc4O3)cc2[nH]c1=O (centres unmarked) [Compound 398] | 2
38 | CCc1cc2ccc(C(C)(C#N)Cc3cc(F)cc(F)c3)cc2[nH]c1=O (centres unmarked) [Compound 402] | 1 (a compound showing 0 to 50% inhibition at 20 μM is reported as score 1)
